The text below walks through data of patent US20260258039A1, “AROMATIC COMPOUND, METHOD FOR PREPARING SAME, AND USE THEREOF IN PREPARATION OF ESTROGEN RECEPTOR DEGRADER” (Hinova Pharmaceuticals Inc., priority 2022, published 2026).

Where two headings read alike, the source gives them in different places. A value given as a limit tells only on which side of the number the result lay.

For assay [1], the target named is T1, ER (Homo sapiens, UniProt P03372).
T1 construct: T47D breast cancer cells were subcultured in cell culture medium; endogenous in cells; host or cells: T47D breast cancer cells
T1 sequence (P03372 1-595): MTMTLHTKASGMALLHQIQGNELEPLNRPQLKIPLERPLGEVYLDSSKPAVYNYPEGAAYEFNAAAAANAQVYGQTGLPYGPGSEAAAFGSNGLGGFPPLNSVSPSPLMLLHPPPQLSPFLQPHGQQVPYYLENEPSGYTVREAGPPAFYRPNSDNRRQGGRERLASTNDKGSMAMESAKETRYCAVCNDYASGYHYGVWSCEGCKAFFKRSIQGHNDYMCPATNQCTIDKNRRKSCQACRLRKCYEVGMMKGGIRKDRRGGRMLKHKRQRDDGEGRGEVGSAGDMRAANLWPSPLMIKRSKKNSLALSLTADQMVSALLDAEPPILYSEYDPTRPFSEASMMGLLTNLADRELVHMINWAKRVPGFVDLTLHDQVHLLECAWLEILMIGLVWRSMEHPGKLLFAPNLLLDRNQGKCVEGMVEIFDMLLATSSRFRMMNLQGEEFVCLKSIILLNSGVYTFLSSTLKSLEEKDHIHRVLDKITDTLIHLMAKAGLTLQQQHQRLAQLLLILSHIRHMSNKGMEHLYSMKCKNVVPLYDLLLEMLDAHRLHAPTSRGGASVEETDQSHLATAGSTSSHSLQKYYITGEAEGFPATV
The assay is described as follows: Degradation activities on ER (ELISA) in T47D breast cancer cells. Conditions: for DC50: concentration required to degrade 50% of the target protein. The class given is cell-based. In outline:
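Cellular ER degradation ELISA: compound dosed 24 h on T47D cells (2.5×10^4/well, pre-grown 3 days) at six final levels from 100 nM downward. Remaining ER was detected by HRP-TMB absorbance at 450 nm. Dose-response fitting gave DC50 and Dmax, the maximal percentage degraded.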

For assay [2], the target named is T1, ER. The assay is described as follows: Degradation activities on ER (Western blotting) in T47D breast cancer cells. The class given is cell-based. The settings on record: 24 h, Western blot. The method, then:
T47D breast cancer cells were subcultured in cell culture medium, and the cells in good growth condition were seeded into 6-well plate at 2 mL/well, with 2.5×10^5 cells per well. The cells were incubated overnight in a 37° C. incubator under 5% CO2. The drug was prepared into 10 mM stock solution with dimethyl sulfoxide (DMSO). Prior to use, the stock solution was diluted with DMSO in a ratio of 1:3. […] of the diluted compound was added to the cell culture wells (to ensure a DMSO concentration of 0.1% in the culture system), and each concentration was repeated twice. The plate were gently shaken to mix. Additionally, the negative control wells (containing equal amount of DMSO) and the positive control wells were set up. After 24 hours of culture, the cells were lysed with RIPA cell lysis buffer to extract proteins, and the protein concentration was measured using a BCA kit. The protein loading buffer (5×) was added, and the plate was heated at 100° C. for 5 min. Then, the sample was stored at −20° C. […] of protein collected from each well was loaded onto a polyacrylamide gel for electrophoresis. The protein is transferred from the polyacrylamide gel to a PVDF membrane, blocked with 5% skim milk at room temperature for 1 h, and incubated overnight at 4° C. with primary antibodies Anti-ERα rabbit mAb (CST, Cat #: 8644S) and Anti-GAPDH rabbit mAb (CST, Cat #: 2118L). The membrane was washed three times with TBST solution, with 10 min for each time. The secondary antibody (horseradish peroxidase-labeled goat anti-rabbit IgG) was incubated at room temperature for 2 h, and then the membrane was washed three times with TBST solution, with 10 min for each time. Finally, ECL chromogenic solution was added for color development, and an automatic chemiluminescence instrument was used to take pictures. Images were collected and analyzed.
The degradation activities of the compounds according to the present invention towards ER, as tested by western blotting, are presented in Table 2
For orientation: A western blot detects proteins with antibodies after separation by electrophoresis.

[3] abbreviates: T47D cells, 24 h, ELISA, maximum percentage of target protein degraded, read-out: Dmax.

As for `O=C1CCC(N2C(=O)c3ccc(N4CCC(CN5CCC6(CC5)CN(c5ccc([C@@H]7c8ccc(O)cc8CC[C@@H]7c7ccccc7)cc5)C6)CC4)cc3C2=O)C(=O)N1` (stereo partly drawn) [Example 1], the DC50 on ER [1] (T47D cells, 24 h, ELISA) is under 10 nM. The Dmax at ER [1] (setting [3]) was 50 to 75%. The “Percentage reduction of ER” value at ER [2] (compound concentration 10 nM) is listed as 71%.

On ER [1] (T47D cells, 24 h, ELISA), `O=C1CCC(N2Cc3cc(N4CCC5(CCN(CC6CCN(c7ccc([C@@H]8c9ccc(O)cc9CC[C@@H]8c8ccccc8)cc7)CC6)C5)C4)ccc3C2=O)C(=O)N1` (stereo partly drawn) [Example 2, 3-(5-(7-((1-(4-((1R,2S)-6-hydroxyl-2-phenyl-1,2,3,4-tetrahydronaphthalen-1-yl)phenyl)piperidin-4-yl)methyl)-2,7-diazaspiro[4.4]nonane-2-yl)-1-oxoisoinodolin-2-yl)piperidin-2,6-dione] gave a DC50 of over 100 nM. Also, the Dmax at ER [1] (setting [3]) is under 50%. In addition, on ER [2] (compound concentration 1 nM), the “Percentage reduction of ER” value was found to be 53%.

The compound `O=C1CCC(N2Cc3cc(N4CCC(N5CC6(CCN(c7ccc([C@@H]8c9ccc(O)cc9CC[C@@H]8c8ccccc8)cc7)CC6)C5)CC4)ccc3C2=O)C(=O)N1` (stereo partly drawn) [Example 12] had a Dmax at ER [1] (T47D) of over 75%. The compound further gave a DC50 at ER [1] (T47D cells, 24 h, ELISA) of 10 to 50 nM. In addition, the “Percentage reduction of ER” value on ER [2] (compound concentration 10 nM) is listed as 84%.

On ER [1] (T47D cells, 24 h, ELISA), `O=C1CCC(N2C(=O)c3ccc(N4CC5CN(CC6CCN(c7ccc([C@@H]8c9ccc(O)cc9CC[C@@H]8c8ccccc8)cc7)CC6)CC5C4)cc3C2=O)C(=O)N1` (stereo partly drawn) [Example 25, 2-(2,6-dioxopiperidin-3-yl)-5-(5-((1-(4-((1R,2S)-6-hydroxyl-2-phenyl-1,2,3,4-tetrahydronaphthalen-1-yl)phenyl)piperidin-4-yl)methyl)hexahydropyrrolo[3,4-c]pyrrole-2(1H)-yl)isoinodolin-1,3-dione] gave a 50% degradation concentration (DC50) of over 100 nM. The Dmax at ER [1] (setting [3]) is under 50%. The “Percentage reduction of ER” value on ER [2] (compound concentration 10 nM) is given as 47%.

Regarding `O=C1CCC(N2Cc3cc(N4CCC5(CC4)CN(CC4CCN(c6ccc([C@@H]7c8ccc(O)cc8CC[C@@H]7c7ccccc7)cc6)CC4)C5)ccc3C2=O)C(=O)N1` (stereo partly drawn) [Example 27, 3-(5-(2-((1-(4-((1R,2S)-6-hydroxyl-2-phenyl-1,2,3,4-tetrahydronaphthalen-1-yl)phenyl)piperidin-4-yl)methyl)-2,7-diazaspiro[3.5]nonan-7-yl)-1-oxoisoinodolin-2-yl)piperidin-2,6-dione], the Dmax at ER [1] (T47D) is under 50%. Moreover, the 50% degradation concentration (DC50) at ER [1] (T47D cells, 24 h, ELISA) is over 100 nM. Also, the “Percentage reduction of ER” value at ER [2] (compound concentration 1 nM) is on record as 78%.

Consider `O=C1CCC(N2Cc3cc(N4CC(N5CCN(c6ccc([C@@H]7c8ccc(O)cc8CC[C@@H]7c7ccccc7)cc6)CC5)C4)ccc3C2=O)C(=O)N1` (stereo partly drawn) [Example 59, 3-(5-(3-(4-(4-((1R,2S)-6-hydroxyl-2-phenyl-1,2,3,4-tetrahydronaphthalen-1-yl)phenyl)piperazine-1-yl)azetidin-1-yl)-1-oxoisoindol-2-yl)piperidin-2,6-dione], for which, at ER [2] (compound concentration 10 nM), the “Percentage reduction of ER” value is 54%.

In the case of `O=C1CCC(N2C(=O)c3ccc(N4CC5(CCN(CC6CCN(c7ccc([C@H]8c9ccc(O)cc9OC[C@H]8c8ccccc8)cc7)CC6)CC5)C4)cc3C2=O)C(=O)N1` (stereo partly drawn) [Example 80, 2-(2,6-dioxopiperidin-3-yl)-5-(7-((1-(4-((3R,4S)-7-hydroxyl-3-phenylchroman-4-yl)phenyl)piperidin-4-yl)methyl)-2,7-diazaspiro[3.5]nonane-2-yl)isoinodolin-1,3-dione], on ER [2] (compound concentration 1 nM), the “Percentage reduction of ER” value amounted to 50%.

As to `O=C1CCC(N2Cc3cc(N4CC5CN(CC6CCN(c7ccc([C@H]8c9ccc(O)cc9OC[C@H]8c8ccccc8)cc7)CC6)CC5C4)ccc3C2=O)C(=O)N1` (stereo partly drawn) [Example 82, 3-(5-(5-((1-(4-((3R,4S)-7-hydroxyl-3-phenylchroman-4-yl)phenyl)piperidin-4-yl)methyl)hexahydropyrrolo[3,4-c]pyrrole-2(1H)-yl)-1-oxoisoinodolin-2-yl)piperidin-2,6-dione], the “Percentage reduction of ER” value at ER [2] (compound concentration 10 nM) amounted to 49%.

For orientation: DC50 means the concentration giving 50% degradation. A high value points to a less potent degrader. Usually Dmax stands for the largest share of the target that was removed.
